What was measured:
BRD4 BD2 = biological target: T1, BRD4 BD2 (Homo sapiens, UniProt O60885); test: AlphaScreen binding assay, BRD4 Bromodomain 2
T1 construct: made in house
Protocol: (§1) The binding of Example compounds to BRD4 Bromodomain 1 and BRD4 Bromodomain 2 was assessed using 384-well AlphaScreen assay technology. His-epitope tagged BRD4 BD144-168 and BRD4 BD2333-460 were cloned, expressed, and purified to homogeneity. BRD4 BD1 and BRD4 BD2 binding and inhibition was assessed by monitoring the engagement of biotinylated Histone H4 (1-21) K5/8/12/16 tetra-acetylated peptide with the targets using the AlphaScreen technology (PerkinElmer). Specifically, in a 384-well black or white flat bottom plate, BRD4 BD1 (50 nM final) or BRD4 BD2 (100 nM final) was combined with peptide (50 nM final for BD1 or 100 nM final for BD2) in 50 mM HEPES (pH 7.3), 100 mM NaCl, 0.1% (w/v) BSA, and 0.01% (w/v) Triton X-100 either in the presence of DMSO (final 1.25% DMSO) or compound dilution series in DMSO. Alpha streptavidin donor beads and Nickel-chelate acceptor beads were added to a final concentration of 10 μg/ml each. After a minimum of 1 hour equilibration, plates were read on a BMG PHERAstar FS multi-label reader (BMG LabTech). The half maximal inhibitory concentration (IC50) values were calculated using IDBS Activity Base software with a four parameter logistic curve fit by the equation y=A+((B−A)/(1+((C/x)^D))), wherein A denotes the bottom plateau of the curve, B denotes the top plateau of the curve, C denotes the x value at the middle of the curve, D denotes the slope factor, x denotes the original known x values, and y denotes the original known y values. Data was fitted using the Levenburg Marquardt algorithm.

BRD4 BD1 = biological target: T2, BRD4 BD1 (Homo sapiens, UniProt O60885); test: AlphaScreen binding assay, BRD4 Bromodomain 1
T2 construct: made in house
Protocol: as §1

IC50 (BRD4 BD2)	IC50 (BRD4 BD1)	Compound
50 to 500 nM	> 10000 nM	CC(=O)N1c2ccc(-c3ccc(S(C)(=O)=O)cc3)cc2N(C(=O)N2CCCC2)C[C@@H]1C [Example I-100, (S)-1-(2-methyl-6-(4-(methylsulfonyl)phenyl)-4-(pyrrolidine-1-carbonyl)-3,4-dihydroquinoxalin-1(2H)-yl)ethanone]
> 500 nM	> 10000 nM	CC(=O)N1c2ccc(C(=O)N3CCCC3)cc2N(C(=O)c2ccco2)C[C@@H]1C [Example I-101, (S)-1-(4-(furan-2-carbonyl)-2-methyl-6-(pyrrolidine-1-carbonyl)-3,4-dihydroquinoxalin-1(2H)-yl)ethanone]
> 500 nM	> 10000 nM	CC(=O)N1c2ccc(-c3ccc(S(C)(=O)=O)cc3)cc2N(C=O)C[C@@H]1C [Example I-102, (S)-4-acetyl-3-methyl-7-(4-(methylsulfonyl)phenyl)-3,4-dihydroquinoxaline-1(2H)-carbaldehyde]
> 500 nM	> 10000 nM	C[C@H]1CN(C(=O)c2ccco2)c2cc(-c3ccc(S(C)(=O)=O)cc3)ccc2N1C=O [Example I-103, (S)-4-(furan-2-carbonyl)-2-methyl-6-(4-(methylsulfonyl)phenyl)-3,4-dihydroquinoxaline-1(2H)-carbaldehyde]
> 500 nM	> 10000 nM	CC(=O)N1c2ccc(-c3ccc(S(C)(=O)=O)cc3)cc2N(C)C[C@@H]1C [Example I-104, (S)-1-(2,4-dimethyl-6-(4-(methylsulfonyl)phenyl)-3,4-dihydroquinoxalin-1(2H)-yl)ethanone]
50 to 500 nM	> 10000 nM	CC(=O)N1c2ccc(-c3cnn(C4COC4)c3)cc2N(C(=O)CC(C)C)C[C@@H]1C [Example I-105, (S)-1-(4-acetyl-3-methyl-7-(1-(oxetan-3-yl)-1H-pyrazol-4-yl)-3,4-dihydroquinoxalin-1 (2H)-yl)-3-methylbutan-1-one]
50 to 500 nM	> 10000 nM	CC(=O)N1c2ccc(-c3cnn(C4COC4)c3)cc2N(C(=O)C(F)F)C[C@@H]1C [Example I-106, (S)-1-(4-acetyl-3-methyl-7-(1-(oxetan-3-yl)-1H-pyrazol-4-yl)-3,4-dihydroquinoxalin-1(2H)-yl)-2,2-difluoroethanone]
50 to 500 nM	1000 to 10000 nM	CC(=O)N1c2ccc(-c3cnn(C4COC4)c3)cc2N(C(=O)CC2CC2)C[C@@H]1C [Example I-107, (S)-1-(4-acetyl-3-methyl-7-(1-(oxetan-3-yl)-1H-pyrazol-4-yl)-3,4-dihydroquinoxalin-1(2H)-yl)-2-cyclopropylethanone]
50 to 500 nM	> 10000 nM	CC(=O)N1c2ccc(-c3cnn(C4COC4)c3)cc2N(C(=O)CC(F)(F)F)C[C@@H]1C [Example I-108, (S)-1-(4-acetyl-3-methyl-7-(1-(oxetan-3-yl)-1H-pyrazol-4-yl)-3,4-dihydroquinoxalin-1 (2H)-yl)-3,3,3-trifluoropropan-1-one]
> 500 nM	> 10000 nM	CC(=O)N1c2ccc(-c3cnn(C4COC4)c3)cc2N(C(=O)C(C)C)C[C@@H]1C [Example I-109, (S)-1-(4-acetyl-3-methyl-7-(1-(oxetan-3-yl)-1H-pyrazol-4-yl)-3,4-dihydroquinoxalin-1 (2H)-yl)-2-methylpropan-1-one]
> 500 nM	> 10000 nM	CC(=O)N1c2ccc(-c3cnn(C4COC4)c3)cc2N(C(=O)C2CCOCC2)C[C@@H]1C [Example I-110, (S)-1-(2-methyl-6-(1-(oxetan-3-yl)-1H-pyrazol-4-yl)-4-(tetrahydro-2H-pyran-4-carbonyl)-3,4-dihydroquinoxalin-1(2H)-yl)ethanone]
50 to 500 nM	1000 to 10000 nM	CC(=O)N1c2ccc(-c3cnn(C4COC4)c3)cc2N(C(=O)CC2CCCC2)C[C@@H]1C [Example I-111, (S)-1-(4-acetyl-3-methyl-7-(1-(oxetan-3-yl)-1H-pyrazol-4-yl)-3,4-dihydroquinoxalin-1(2H)-yl)-2-cyclopentylethanone]
> 500 nM	> 10000 nM	CC(=O)N1c2ccc(-c3cnn(C4COC4)c3)cc2N(C(=O)C(C)(C)Cl)C[C@@H]1C [Example I-115, (S)-1-(4-acetyl-3-methyl-7-(1-(oxetan-3-yl)-1H-pyrazol-4-yl)-3,4-dihydroquinoxalin-1(2H)-yl)-2-chloro-2-methylpropan-1-one]
50 to 500 nM	1000 to 10000 nM	CC(=O)N1c2ccc(-c3cnn(Cc4ccncc4)c3)cc2N(C(=O)C2CC2)C[C@@H]1C [Example I-118, (S)-1-(4-(cyclopropanecarbonyl)-2-methyl-6-(1-(pyridin-4-ylmethyl)-1H-pyrazol-4-yl)-3,4-dihydroquinoxalin-1(2H)-yl)ethanone]
50 to 500 nM	1000 to 10000 nM	CC(=O)N1c2ccc(-c3cnn(CC(=O)N4CCOCC4)c3)cc2N(C(=O)C2CC2)C[C@@H]1C [Example I-125, (S)-2-(4-(1-acetyl-4-(cyclopropanecarbonyl)-2-methyl-1,2,3,4-tetrahydroquinoxalin-6-yl)-1H-pyrazol-1-yl)-1-morpholinoethanone]
50 to 500 nM	1000 to 10000 nM	CNC(=O)Cn1cc(-c2ccc3c(c2)N(C(=O)C2CC2)C[C@H](C)N3C(C)=O)cn1 [Example I-132, (S)-2-(4-(1-acetyl-4-(cyclopropanecarbonyl)-2-methyl-1,2,3,4-tetrahydroquinoxalin-6-yl)-1H-pyrazol-1-yl)-N-methylacetamide]

IC50 (BRD4 BD2)	IC50 (BRD4 BD1)	Compound
50 to 500 nM	1000 to 10000 nM	CC(=O)N1c2ccc(-c3cnn(CCC(=O)O)c3)cc2N(C(=O)C2CC2)C[C@@H]1C [Example I-136, (S)-3-(4-(1-acetyl-4-(cyclopropanecarbonyl)-2-methyl-1,2,3,4-tetrahydroquinoxalin-6-yl)-1H-pyrazol-1-yl)propanoic acid]
50 to 500 nM	100 to 1000 nM	CC(=O)N1c2ccc(-c3cnn(Cc4noc(C)n4)c3)cc2N(C(=O)OC(C)C)C[C@@H]1C [Example I-138, (S)-isopropyl 4-acetyl-3-methyl-7-(1-((5-methyl-1,2,4-oxadiazol-3-yl)methyl)-1H-pyrazol-4-yl)-3,4-dihydroquinoxaline-1(2H)-carboxylate]
50 to 500 nM	1000 to 10000 nM	CC(=O)N1c2ccc(-c3cnn(CCC(F)(F)F)c3)cc2N(C(=O)OC(C)C)C[C@@H]1C [Example I-142, (S)-isopropyl 4-acetyl-3-methyl-7-(1-(3,3,3-trifluoropropyl)-1H-pyrazol-4-yl)-3,4-dihydroquinoxaline-1(2H)-carboxylate]
50 to 500 nM	1000 to 10000 nM	CC(=O)N1c2ccc(-c3cnn(CCN4CCOCC4)c3)cc2N(C(=O)C2CC2)C[C@@H]1C [Example I-151, (S)-1-(4-(cyclopropanecarbonyl)-2-methyl-6-(1-(2-morpholinoethyl)-1H-pyrazol-4-yl)-3,4-dihydroquinoxalin-1(2H)-yl)ethanone]
> 500 nM	> 10000 nM	CC(=O)N1c2ccc(-c3cnn(C4CC4)c3)nc2N(C(=O)Nc2ccc(F)cc2)C[C@@H]1C [Example I-192, (S)-1-acetyl-6-(1-cyclopropyl-1H-pyrazol-4-yl)-N-(4-fluorophenyl)-2-methyl-2,3-dihydropyrido[2,3-b]pyrazine-4(1H)-carboxamide]
> 500 nM	> 10000 nM	CC(=O)N1c2ccc(-c3cnn(C4CC4)c3)nc2N(C(=O)NC(C)C)C[C@@H]1C [Example I-193, (S)-1-acetyl-6-(1-cyclopropyl-1H-pyrazol-4-yl)-N-isopropyl-2-methyl-2,3-dihydropyrido[2,3-b]pyrazine-4(1H)-carboxamide]
50 to 500 nM	1000 to 10000 nM	CC(=O)N1c2ccc(-c3ccc(S(C)(=O)=O)cc3)cc2N(C(=O)Oc2ccc(Cl)cc2)C[C@@H]1C [Example I-226]
> 500 nM	> 10000 nM	CC(=O)N1c2ccc(-c3ccc(S(C)(=O)=O)cc3)cc2N(C(=O)OCc2ccccc2)C[C@@H]1C [Example I-230]
50 to 500 nM	1000 to 10000 nM	COC(=O)N1C[C@H](C)N(C(C)=O)c2ccc(-c3ccc(S(C)(=O)=O)cc3)cc21 [Example I-235]
50 to 500 nM	1000 to 10000 nM	C#CCOC(=O)N1C[C@H](C)N(C(C)=O)c2ccc(-c3ccc(S(C)(=O)=O)cc3)cc21 [Example I-240]
50 to 500 nM	1000 to 10000 nM	CC(=O)N1C[C@H](C)N(C(C)=O)c2ccc(-c3ccc(S(C)(=O)=O)cc3)cc21 [Example I-241]
> 500 nM	> 10000 nM	CC(=O)N1c2ccc(-c3ccc(S(C)(=O)=O)cc3)cc2N(C(=O)C(C)C)C[C@@H]1C [Example I-242]
> 500 nM	> 10000 nM	CC(=O)N1c2ccc(-c3ccc(S(C)(=O)=O)cc3)cc2N(C(=O)C(C)(C)C)C[C@@H]1C [Example I-243]
50 to 500 nM	1000 to 10000 nM	CC(=O)N1c2ccc(-c3ccc(S(C)(=O)=O)cc3)cc2N(C(=O)C2CCCC2)C[C@@H]1C [Example I-244]
50 to 500 nM	1000 to 10000 nM	CC(=O)N1c2ccc(-c3ccc(S(C)(=O)=O)cc3)cc2N(C(=O)CC2CCCC2)C[C@@H]1C [Example I-246]
> 500 nM	> 10000 nM	CC(=O)N1c2ccc(-c3ccc(S(C)(=O)=O)cc3)cc2N(C(=O)CC#N)C[C@@H]1C [Example I-247]
